Here are results for 27 molecules from EP0354694A1, “Therapeutic [1]benzothiopyrano[4,3-c]pyrazoles” (The Boots Company PLC, priority 1988, dated 1990).

The assay deals with BALB/c mice. The experiment in a line: cutaneous hypersensitivity test (CH test), oxazolone-induced ear swelling. In kind it is in vivo. Conditions: Mus musculus, ip, 192 h; female BALB/c mice, intraperitoneal, daily from sensitisation for 8 days; lowest dose used with 20% or greater significant (p <0.05) reduction in ear swelling in two out of three CH tests; read-out: Minimum Effective Dose. How it is done: This test was carried out in the following way.
Female BALB/c mice, weight range 16-24 g, were used in groups of eight. The abdomen of each mouse was shaved and 20 µl of a solution of a sensitising agent, 5% w/v 4-ethoxymethylene-2-phenyl-2-oxazolin-5-one (oxazolone) in acetone:ethanol (1:1 by volume), was applied to the shaved area. Immediately after sensitisation, the test compound in one of the dosages listed below was injected intraperitoneally as a suspension in 1.5% v/v sorbitan esters, under the trade name Tween 80, in sterile water (100 µl). 100 µl of the same suspension was injected likewise every 24 hours for a further 7 days. The dosages used were selected from the following values: 50, 30, 10, 3, 1, 0.3, 0.1, 0.03 or 0.01 mg/kg.
Two groups of eight BALB/c mice were used as a control simultaneously with each test in a similar manner to that described above except that no test compound was included in the daily injections.
On the seventh day after sensitisation, 10 µl of a solution of 1% w/v oxazolone in acetone: olive oil (either 1:1 or 3:1 by volume) was applied to one ear (the challenged ear) of each of the test mice and the control mice. After 24 hours the thickness of the challenged ear and the thickness of the non-challenged ear of the same animal were measured with an engineer's screw gauge micrometer. The difference in thickness between the challenged ear and the non-challenged ear in each animal is a measure of the response of that animal to oxazolone. A comparison between the response of mice treated with the test compound and mice treated with the control indicates the effectiveness of the test compound as an immunomodulatory agent. The compounds were considered to be active at a particular dose if a 20% or greater reduction in ear swelling, which was statistically significant (p <0.05) according to Dunnett's test, between treated and control groups was obtained in two out of three CH tests, (or, where more than three tests have been carried out, a majority of the tests) at that dose (see for example Int. Arch. Allergy, 38, p246-259 (1970)).
Each of the compounds of formula I illustrated in Table A below was active at 50 mg/kg in two out of three tests at 50 mg/kg unless indicated otherwise (see Notes following the Table). The minimum effective dose (ie the lowest dose of those used at which the compound is active as defined above) for each compound is given in Table A. The Example (Ex) number or numbers listed adjacent to each compound indicates the process or processes illustrating the preparation of that compound in the Examples.
`CC12CSc3ccccc3C1=NN(c1ccc(Br)cc1)C2=O` (stereo not drawn) [Example 20, 2-(4-bromophenyl)-3a-methyl-3a,4-dihydro[1]benzothiopyrano[4,3-c]-pyrazol-3(2H)-one]: the minimal effective dose worked out at 1 mg/kg.

`Cc1sc2ccccc2c2nn(-c3ccc(Cl)cc3)c(=O)c1-2` [Example 35, 2-(4-chlorophenyl)-4-methyl[1]-benzothiopyrano[4,3-c]pyrazol-3(2H)-one]: the minimal effective dose is 10 mg/kg. For `Cc1sc2ccccc2c2nn(-c3ccc(F)cc3)c(=O)c1-2` [Example 36, 2-(4-fluorophenyl)-4-methyl[1]benzo-thiopyrano[4,3-c]pyrazol-3(2H)-one] the value was 10 mg/kg; for `Cc1ccc2sc(C)c3c(=O)n(-c4ccc(Cl)cc4)nc-3c2c1` [Example 41, 2-(4-chlorophenyl)-4,8-dimethyl[1]-benzothiopyrano[4,3-c]pyrazol-3(2H)-one], 3 mg/kg; for `Cc1sc2ccccc2c2nn(-c3cccc(Cl)c3)c(=O)c1-2` [Example 42, 2-(3-chlorophenyl)-4-methyl[1]benzo-thiopyrano[4,3-c]pyrazol-3(2H)-one], 50 mg/kg. For the molecule `CC12CSc3ccccc3C1=NN(c1ccc(F)c(Cl)c1)C2=O` (stereo not drawn) [Example 18, 2-(3-chloro-4-fluorophenyl)-3a-methyl-3a,4-dihydro[1]benzothiopyrano[4,3-c]-pyrazol-3(2H)-one], the minimal effective dose was determined as 3 mg/kg.

In the case of `Cc1ccc(N2N=C3c4ccccc4SCC3(C)C2=O)cc1Cl` (stereo not drawn) [Example 19, 2-(3-chloro-4-methylphenyl)-3a-methyl-3a,4-dihydro[1]benzothiopyrano[4,3-c]-pyrazol-3(2H)-one], the minimal effective dose was determined as 3 mg/kg. For the molecule `CC12CSc3ccccc3C1=NN(c1ccc(F)cc1)C2=O` (stereo not drawn) [Example 12, 2-(4-fluorophenyl)-3a-methyl-3a,4-dihydro[1]benzothiopyrano[4,3-c]-pyrazol-3(2H)-one], the minimal effective dose came out at 50 mg/kg. For `CC12CSc3ccccc3C1=NN(c1ccc(Cl)c(Cl)c1)C2=O` (stereo not drawn) [Example 13/ 24, 2-(3,4-dichlorophenyl)-3a-methyl-3a,4-dihydro[1]benzothiopyrano-[4,3-c]pyrazol-3(2H)-one] the value was 0.3 mg/kg. As to `CC1Sc2ccccc2-c2[nH]n(-c3ccc(C(F)(F)F)cc3)c(=O)c21` (stereo not drawn) [Example 29/ 34/ 44, 4-methyl-2-(4-trifluoromethylphenyl)-1,4-dihydro[1]benzothiopyrano[4,3-c]-pyrazol-3(2H)-one], the minimal effective dose turned out to be 3 mg/kg.

Take `CC12CSc3ccccc3C1=NN(c1ccc(Br)c(Cl)c1)C2=O` (stereo not drawn) [Example 17, 2-(4-bromo-3-chlorophenyl)-3a-methyl-3a,4-dihydro[1]benzothiopyrano[4,3-c]-pyrazol-3(2H)-one]: the minimal effective dose was 0.3 mg/kg.

Regarding `CCC1Sc2ccccc2-c2[nH]n(-c3ccc(Cl)cc3)c(=O)c21` (stereo not drawn) [Example 28, 2-(4-chlorophenyl)-4-ethyl-1,4-dihydro[1]benzothiopyrano[4,3-c]-pyrazol-3(2H)-one], the minimal effective dose was determined as 50 mg/kg. For the molecule `CC1Sc2ccccc2-c2[nH]n(-c3ccc(Cl)c(Cl)c3)c(=O)c21` (stereo not drawn) [Example 26, 2-(3,4-dichlorophenyl)-4-methyl-1,4-dihydro[1]benzothiopyrano[4,3-c]-pyrazol-3(2H)-one], the minimal effective dose amounted to 50 mg/kg. For `COc1ccc(-n2nc3c4ccccc4sc(C)c-3c2=O)cc1` [Example 40, 2-(4-methoxyphenyl)-4-methyl[1]benzo-thiopyrano[4,3-c]pyrazol-3(2H)-one] the value was 50 mg/kg; for `CSc1ccc(N2N=C3c4ccccc4SCC3(C)C2=O)cc1` (stereo not drawn) [Example 21, 3a-methyl-2-(4-methylthiophenyl)-3a,4-dihydro[1]benzothiopyrano[4,3-c]-pyrazol-3(2H)-one], 50 mg/kg. As to `Cc1sc2ccccc2c2nn(-c3ccc(Cl)c(Cl)c3)c(=O)c1-2` [Example 43, 2-(3,4-dichlorophenyl)-4-methyl[1]-benzothiopyrano[4,3-c]pyrazol-3(2H)-one], the minimal effective dose came out at 3 mg/kg. For `CC12CSc3ccccc3C1=NN(c1ccc(C(F)(F)F)cc1)C2=O` (stereo not drawn) [Example 16, 3a-methyl-2-(4-trifluoromethylphenyl)-3a,4-dihydro[1]benzothiopyrano-[4,3-c]pyrazol-3(2H)-one] the value was 0.3 mg/kg; for `Cc1sc2ccccc2c2nn(-c3ccc(C(F)(F)F)cc3)c(=O)c1-2` [Example 38, 4-methyl-2-(4-trifluoromethyl-phenyl)[1]benzothiopyrano[4,3-c]-pyrazol-3(2H)-one], 0.3 mg/kg.

Consider `CC1Sc2ccccc2-c2[nH]n(-c3ccc(F)cc3)c(=O)c21` (stereo not drawn) [Example 27, 2-(4-fluorophenyl)-4-methyl-1,4-dihydro[1]benzothiopyrano[4,3-c]-pyrazol-3(2H)-one], for which the minimal effective dose amounted to 50 mg/kg. For `CC1Sc2ccccc2-c2[nH]n(-c3ccc(Br)cc3)c(=O)c21` (stereo not drawn) [Example 30, 2-(4-bromophenyl)-4-methyl-1,4-dihydro[1]benzothiopyrano[4,3-c]-pyrazol-3(2H)-one] the value was 3 mg/kg. For `CCc1sc2ccccc2c2nn(-c3ccc(Cl)cc3)c(=O)c1-2` [Example 37, 2-(4-chlorophenyl)-4-ethyl[1]benzo-thiopyrano[4,3-c]pyrazol-3(2H)-one] the value was 50 mg/kg. For the molecule `CC12CSc3ccc(F)cc3C1=NN(c1ccc(Cl)cc1)C2=O` (stereo not drawn) [Example 22, 2-(4-chlorophenyl)-8-fluoro-3a-methyl-3a,4-dihydro[1]benzothiopyrano[4,3-c]-pyrazol-3(2H)-one], the minimal effective dose was determined as 50 mg/kg.

On to `CC12CSc3ccccc3C1=NN(c1ccc(Cl)cc1)C2=O` (stereo not drawn) [Example 11/ 23, 2-(4-chlorophenyl)-3a-methyl-3a,4-dihydro[1]benzothiopyrano[4,3-c]-pyrazol-3(2H)-one], for which the minimal effective dose came to 3 mg/kg. For `CC12CSc3ccc(Cl)cc3C1=NN(c1ccc(Cl)c(Cl)c1)C2=O` (stereo not drawn) [Example 15, 8-chloro-2-(3,4-dichlorophenyl)-3a-methyl-3a,4-dihydro[1]benzothio-pyrano[4,3-c]pyrazol-3(2H)-one] the value was 50 mg/kg. For `Cc1sc2ccccc2c2nn(-c3ccc(Br)cc3)c(=O)c1-2` [Example 39, 2-(4-bromophenyl)-4-methyl[1]benzo-thiopyrano[4,3-c]pyrazol-3(2H)-one] the value was 50 mg/kg; for `CC1Sc2ccccc2-c2[nH]n(-c3ccc(Cl)cc3)c(=O)c21` (stereo not drawn) [Example 25, 2-(4-chlorophenyl)-4-methyl-1,4-dihydro[1]benzothiopyrano[4,3-c]-pyrazol-3(2H)-one], 30 mg/kg. As for `CC12CSc3ccccc3C1=NN(c1cccc(Cl)c1)C2=O` (stereo not drawn) [Example 14, 2-(3-chlorophenyl)-3a-methyl-3a,4-dihydro[1]benzothiopyrano[4,3-c]-pyrazol-3(2H)-one], the figure is 3 mg/kg.
